Assay results: US12485110B2, “Use of ergothioneine for extending lifespan or improving healthspan” (NANJING NUTRABUILDING BIO-TECH CO., LTD., priority 2022, dated 2025)

Key:
Assay type in all cases: in vivo
C. elegans [1] = test: Movement and healthspan analysis (worm activity, morphology, circularity)
From the text: Worm movement was tracked from the images acquired by the ALM during the lifespan assay. Worm size and movement features were extracted and analyzed using custom software.
To measure healthspan, active worms were identified using the ALM scanner images from the lifespan assay (see Example 2). The worms' spatial location on the plate and their morphology were quantified throughout their lifespan to assess healthspan.
Worm Activity serves as a proxy for animal health. Changes in spatial distribution of the worms between time points is used to derive aggregate movement for the population over time. Worm Activity is described by two complementary measurements of aggregate movement, Centroid Distance and Spatial Distribution: • Centroid Distance calculates a geometric center for each individual worm, and then measures the minimum collective distance that a group of worms moved between time points. It achieves measurement of the changes in spatial distribution between time-points. • Spatial Distribution uses changes in worm contours between time points to measure the changes in the spatial distribution of the worms' bodies. The normalized distribution of these distances in the population provides a measure of how much the group of worms altered their positions and posture on the plate between two time-points.
For both of these Activity metrics, a plot with higher numbers indicates good health, and all measures are normalized to fall between 0 and 1.
Worm morphology is measured from the worm contours detected in the images. In the process of aging, worms become shorter and stouter over time and their shape is an indicator of their overall health and biological age. The Length is calculated from the central spline fitted to the worm contour and Width is measured from each worm's widest point. The worms' posture also changes with age as they lose the ability to maintain an elongated position. Average Circularity measures how close the shape and posture come to being enclosed by a circle.
Each of these measures are obtained by averaging data for all active worms detected on a plate, then averaging across different replicate plates of the same condition. All measurements are based on worms that are still alive and moving at the time of quantification. All measures start when worms are placed on the scanner at day 3 of adulthood.
Average Circularity. The Average Circularity Assay indicates worm heath by describing how closely the shape and posture of the worms is enclosed within a circle. Healthy, active worms maintain an elongated, albeit sinusoidal posture. As unhealthy and aged worms lose muscle function, they increasingly adopt a curled, bunched, or folded state in addition to a stout and wrinkled morphology.

C. elegans [2] = test: Longevity-focused pathway analysis of differentially expressed genes
From the text: This example describes identification of cellular pathways that are most likely modulated by treatment with Ergothioneine. To accomplish this, the genes differentially expressed after Ergothioneine treatment were first mapped to core established longevity pathways from the literature. Then the mapping was expanded to intersecting and supporting pathways. This placed the transcriptomic data within the context of well-characterized biological pathways, particularly several related to longevity.
Differentially expressed genes (DEGs) were mapped to known physiological pathways and then examined for coherent linkages between pathways related to longevity. These pathways were drawn from WormBase, KEGG, and other published databases and literature. For each condition, the DEGs were filtered on a more relaxed P value cutoff than the initial differential gene expression to capture broad evidence for a pathway from many small changes as opposed to highly significant individual genes of interest. For visualization, pathway genes were given a score based on the fold change weighted by the log of the P value, and this score was color mapped by magnitude and direction to produce the pathway diagram in FIG. 11.
FIG. 11 is a summary of pathway mapping to recognized aging-related pathways for Ergothioneine treatment. Colored score increments indicate degree of up-(red) or down-(blue) regulation weighted by the log of the P value such that each increment approximates one inverse log of P value. Uncolored objects indicate components that were not detected in the data. Top red indicates P value<0.0001 and so on. Solid lines indicate direct pathway connections and dashed lines indicate indirect or multi-step connections. Where lists of differentially expressed genes have been condensed into a module, the number of genes is indicated.
Starting with the canonical longevity pathways, the intersections with supporting pathways was then examined to expand the pool of evidence of whether a pathway is impacted by the treatment.

C. elegans [3] = test: Growth and development (growth and toxicity) assay
From the text: C. elegans was used in this study because it has advantages including having all the physiological properties of an animal, the ability to replicate human diseases, and a fast life cycle. The body of C. elegans is encased in a selectively permeable cuticle that only permits some compounds to be absorbed efficiently through the skin, so the most reliable mechanism for delivering compounds to the worms is through ingestion. Water-soluble compounds permeate the media and food and are readily taken up by the worms.
Making culturing plates with ergothioneine: C. elegans is usually grown in the laboratory using E. coli as a food source. Nematode Growth Medium (NGM) plates have been prepared by aseptically pouring NGM agar into petri plates. Ergothioneine was dissolved in water to make a working solution of 0.5 M and then mixed with E. coli liquid culture before seeding on NGM agar plates. The seeding spots were dried slowly, allowing ergothioneine to diffuse into the food bacteria and the agar for at least 24 hours before worms are introduced. The indicated ergothioneine dosages (0, 640 nM, 3.2 μM, 16 μM, 80 μM, 400 μM, 2 mM, and 10 mM) are based on the total volume of the plates.
High-resolution imaging and automated detection were used to precisely measure the growth rate of C. elegans worms from hatching to the first day of adulthood (total of 4 days). The C. elegans growth and development assay is highly sensitive and widely used in toxicology studies. Performing this test over a range of doses helps to identify a set of doses that have a physiological impact and exclude dose ranges that are likely too toxic to benefit lifespan.

[4] = Ergothioneine treatment, pathway mapping FIG. 11

SMILES: C[N+](C)(C)[C@@H](Cc1c[nH]c(=S)[nH]1)C(=O)[O-] [Ergo, Ergothioneine]
- Aggregate movement (Centroid Distance and Spatial Distribution, FIGS. 5A-5B) (C. elegans [1]; 5 mM, over the duration of lifespan): more vigorous movement
- Average circularity (FIG. 7) (C. elegans [1]; ergothioneine-treated worms vs control, peaking at around 16 days): only slight differences
- Worm morphology (length, width, area, FIGS. 6A-6C) (C. elegans [1]; up to the 5 mM dosage, over the lifespan): did not produce detectable changes in morphology
- superoxide dismutase (SOD-2) expression (C. elegans [2]; Ergo treatment): slightly decreased expression
- cpr-1 expression (C. elegans [2]; Ergothioneine treatment, autophagy): significantly downregulated
- daf-2 expression (C. elegans [2]; [4]): slightly downregulated
- daf-16 expression (C. elegans [2]; [4]): slight downregulation
- ife-2 (eIF4E) expression (C. elegans [2]; [4]): downregulated
- mtl-1 expression (C. elegans [2]; [4]): strongly downregulated
- skn-1 expression (C. elegans [2]; Ergothioneine treatment, stress response): slight downregulation
- Number and size of worms (FIG. 1) (C. elegans [3]; 16 μM and 400 μM, L4 and day 1 adult): comparable number and size
- Number of worms (FIG. 1) (C. elegans [3]; 10 mM, L4 and day 1 adult stages): less worms
- Size of young adults (FIG. 2) (C. elegans [3]; 10 mM, day 1 adult stage): smaller than normal
- Growth rate (worm size, FIG. 2) (C. elegans [3]; concentrations up to 2 mM, day 1 adult stage): largely unaffected
- Growth rate (worm size, FIG. 2) (C. elegans [3]; concentrations up to 10 mM, L4 stage): largely unaffected
